According to patent publication US11834440B2, “Beta-lactam derivatives for the treatment of diseases” (Insilico Medicine IP Limited, priority 2021, dated 2023):

molecular target: QPCTL (Homo sapiens (Human), UniProt Q9NXS2); test: QPCTL inhibition, SensoLyte Green Glutaminyl Cyclase Activity Assay; assay type: biochemical; settings: 0.8 nM 2x enzyme solution, 45 min at 37° C., 50 mM Tris pH 8.0, 1% DMSO
Experimental: Preparation of working solution: 2×Glutaminyl Cyclase substrate was diluted in assay buffer to […]. 2×enzyme solution and QPCTL was diluted in assay buffer to 0.8 nM. Glutaminyl Cyclase Developer was diluted in assay buffer to 1×(containing 10 mM 1-Benzyl-Imidazole). Serial dilution of test compounds was performed in DMSO. The final DMSO concentration in 100 μl reaction was 1%. The assay buffer was 50 mM Tris, pH 8.0, 0.01% BSA.
Procedure: 50 μL of 2×Glutaminyl Cyclase substrate solution was added into the assay plate followed by 50 μL of 2×enzyme solution. The plate was centrifuged for 1 min at 1000 rmp. Next the plate was incubated for 45 minutes at 37° C. This was followed by the additional of 50 μL of the prepared Glutaminyl Cyclase developer and incubated for additional 30 min at 37° C. Results were read on SpectraMax Paradigm detecting with emission at Ex/Em=490 nm/520 nm.
A Z′ value was calculated for each assay plate. The Z′ value must be >0.5 or the plate was disqualified. […] Results were calculated using GraphPad Prism 7 software is used for IC50 determination.

Chain of QPCTL (Q9NXS2 whole entry, species assumed): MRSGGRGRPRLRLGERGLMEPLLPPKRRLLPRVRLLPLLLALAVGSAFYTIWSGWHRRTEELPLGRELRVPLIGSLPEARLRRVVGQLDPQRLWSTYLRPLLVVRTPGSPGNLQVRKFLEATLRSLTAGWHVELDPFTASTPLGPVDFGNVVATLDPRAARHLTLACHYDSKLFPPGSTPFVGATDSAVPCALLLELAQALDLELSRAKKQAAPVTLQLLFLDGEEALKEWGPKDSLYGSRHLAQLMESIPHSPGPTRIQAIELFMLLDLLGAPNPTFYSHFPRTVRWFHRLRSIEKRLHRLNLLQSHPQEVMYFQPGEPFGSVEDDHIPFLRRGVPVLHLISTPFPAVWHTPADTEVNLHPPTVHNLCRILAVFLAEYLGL

Row | Structure (SMILES) | IC50 [nM]
1 | Cc1cc(-c2cnn(C(F)(F)F)c2)ncc1[C@@H]1[C@H](C2CC2)C(=O)N1c1ccc2[nH]cnc2c1 (single isomer, unassigned) [Compound 66A] | 25 to 1000
2 | CC1C(=O)N(c2ccc3[nH]cnc3c2)C1c1c(F)cc(-c2cnn(C(F)(F)F)c2)cc1F (racemic) [Compound 14, (cis and racemic)-1-(1H-benzo[d]imidazol-5-yl)-4-(2,6-difluoro-4-(1-(trifluoromethyl)-1H-pyrazol-4-yl)phenyl)-3-methyl azetidin-2-one] | 2 to 25
3 | O=C1[C@H](C2CC2)[C@H](c2c(F)cc(-c3cnccn3)cc2F)N1c1ccc2[nH]cnc2c1 (single isomer, unassigned) [Compound 53B] | < 2
4 | O=C1[C@H](O)[C@H](c2c(F)cc(OCCC(F)F)cc2F)N1c1ccc2[nH]cnc2c1 (single isomer, unassigned) [Compound 8B] | < 2
5 | C[C@@H]1C(=O)N(c2ccc3[nH]cnc3c2)[C@@H]1c1c(F)cc(OCC(C)(C)O)cc1F (single isomer, unassigned) [Compound 32A] | 25 to 1000
6 | Cc1nc(-c2cnn(C(F)(F)F)c2)ccc1[C@@H]1[C@H](C2CC2)C(=O)N1c1ccc2[nH]cnc2c1 (single isomer, unassigned) [Compound 68A] | 25 to 1000
7 | C=C1C(=O)N(c2ccc3[nH]cnc3c2)[C@@H]1c1c(F)cc(OCCC(F)F)cc1F (single isomer, unassigned) [Compound 22A] | 25 to 1000
8 | O=C1[C@H](C2COC2)[C@H](c2c(F)cc(OCCC(F)F)cc2F)N1c1ccc2[nH]cnc2c1 (single isomer, unassigned) [Compound 44B] | < 2
9 | Cn1cc(-c2cc(F)c([C@@H]3[C@H](O)C(=O)N3c3ccc4[nH]cnc4c3)c(F)c2)cn1 (single isomer, unassigned) [Compound 15A] | > 1000
10 | Cc1ccc(-c2ccc([C@@H]3[C@H](C4CC4)C(=O)N3c3ccc4[nH]cnc4c3)c(C)n2)nn1 (single isomer, unassigned) [Compound 71A] | 25 to 1000
11 | Cc1ncc(-c2cc(F)c([C@H]3[C@@H](C)C(=O)N3c3ccc4[nH]cnc4c3)c(F)c2)s1 (racemic) [Compound 11CR, (cis and racemic)-1-(1H-benzo[d]imidazol-5-yl)-4-(2,6-difluoro-4-(2-methylthiazol-5-yl)phenyl)-3-methylazetidin-2-one] | 2 to 25
12 | C[C@H]1C(=O)N(c2ccc3[nH]cnc3c2)[C@H]1c1c(F)cc(OCCC2CC2)cc1F (racemic) [Compound 34CR, (Cis and racemic)-1-(1H-benzo[d]imidazol-5-yl)-4-(4-(2-cyclopropylethoxy)-2,6-difluorophenyl)-3-methylazetidin-2-one] | < 2
13 | Cc1cc([C@@H]2[C@H](C3CC3)C(=O)N2c2ccc3[nH]cnc3c2)ccc1-c1cnn(C(F)(F)F)c1 (single isomer, unassigned) [Compound 57A] | 25 to 1000
14 | C[C@@H]1C(=O)N(c2ccc3[nH]cnc3c2)[C@H]1c1c(F)cc(OCCC2CC2)cc1F (racemic) [Compound 34TR, (Trans and racemic)-1-(1H-benzo[d]imidazol-5-yl)-4-(4-(2-cyclopropylethoxy)-2,6-difluorophenyl)-3-methylazetidin-2-one] | 25 to 1000
15 | CC[C@@H]1C(=O)N(c2ccc3[nH]cnc3c2)[C@@H]1c1c(F)cc(-c2cnn(C(F)(F)F)c2)cc1F (single isomer, unassigned) [Compound 51A] | 25 to 1000
16 | C[C@@H]1C(=O)N(c2ccc3[nH]cnc3c2)[C@H]1c1c(F)cc(-n2cc(C(F)(F)F)cn2)cc1F (racemic) [Compound 28TR, (trans and racemic)-1-(1H-benzo[d]imidazol-5-yl)-4-(2,6-difluoro-4-(4-(trifluoromethyl)-1H-pyrazol-1-yl)phenyl)-3-methylazetidin-2-one] | 2 to 25
17 | O=C1[C@H](C2CC2)[C@H](c2c(F)cc(-n3cc(C(F)(F)F)nn3)cc2F)N1c1ccc2[nH]cnc2c1 (single isomer, unassigned) [Compound 59B] | < 2
18 | C[C@@H]1C(=O)N(c2ccc3[nH]cnc3c2)[C@@H]1c1c(F)cc(-c2cnn(C(F)(F)F)c2)cc1F (single isomer, unassigned) [Compound 14A] | 25 to 1000
19 | C[C@@H]1C(=O)N(c2ccc3[nH]cnc3c2)[C@@H]1c1c(F)cc(N2CCC(F)(F)CC2)cc1F (single isomer, unassigned) [Compound 30A] | > 1000
20 | C[C@H]1C(=O)N(c2ccc3[nH]cnc3c2)[C@H]1c1c(F)cc(-c2cnn(C(F)(F)F)c2)cc1F (single isomer, unassigned) [Compound 14B] | < 2
21 | CN1CCN(c2cc(F)c(C3CC(=O)N3c3ccc4[nH]cnc4c3)c(F)c2)CC1 (racemic) [Compound 4, 1-(1H-benzo[d]imidazol-5-yl)-4-(2,6-difluoro-4-(4-methylpiperazin-1-yl)phenyl)azetidin-2-one] | 2 to 25
22 | O=C1[C@H](O)[C@H](c2c(F)cc(-c3cnn(C(F)F)c3)cc2F)N1c1ccc2[nH]cnc2c1 (racemic) [Compound 25CR] | < 2

Row | Structure (SMILES) | IC50 [nM]
23 | O=C1[C@H](CC(F)(F)F)[C@H](c2c(F)cc(-c3cnn(C(F)(F)F)c3)cc2F)N1c1ccc2[nH]cnc2c1 (single isomer, unassigned) [Compound 54B] | < 2
24 | O=C1[C@@H](C2CC2)[C@@H](c2c(F)cc(-c3cn(C(F)(F)F)nn3)cc2F)N1c1ccc2[nH]cnc2c1 (single isomer, unassigned) [Compound 50A] | 25 to 1000
25 | O=C1[C@@H](C2CC2)[C@@H](c2c(F)cc(C3CC3)cc2F)N1c1ccc2[nH]cnc2c1 (single isomer, unassigned) [Compound 69A] | 25 to 1000
26 | C[C@@H]1C(=O)N(c2ccc3[nH]cnc3c2)[C@@H]1c1c(F)cc(-c2cnn(C)c2)cc1F (single isomer, unassigned) [Compound 13A] | > 1000
27 | C=C1C(=O)N(c2ccc3[nH]cnc3c2)[C@H]1c1c(F)cc(OCCC(F)F)cc1F (single isomer, unassigned) [Compound 22B] | < 2
28 | O=C1[C@H](C2CC2)[C@H](c2c(F)cc(-c3cn(C(F)(F)F)nn3)cc2F)N1c1ccc2[nH]cnc2c1 (single isomer, unassigned) [Compound 50B] | < 2
29 | O=C1[C@H](C2CC2)[C@H](c2c(F)cc(-c3ccc(C(F)(F)F)nn3)cc2F)N1c1ccc2[nH]cnc2c1 (single isomer, unassigned) [Compound 52B] | < 2
30 | O=C1[C@@H](C2CC2)[C@@H](c2ccc(OCCC(F)F)nc2)N1c1ccc2[nH]cnc2c1 (single isomer, unassigned) [Compound 45A] | 25 to 1000
31 | O=C1[C@H](C2CC2)[C@H](c2c(F)cc(-n3ccc(C(F)(F)F)n3)cc2F)N1c1ccc2[nH]cnc2c1 (single isomer, unassigned) [Compound 48B] | < 2
32 | O=C1[C@@H](C2CC2)[C@@H](c2c(F)cc(-n3ccc(C(F)(F)F)n3)cc2F)N1c1ccc2[nH]cnc2c1 (single isomer, unassigned) [Compound 48A] | 2 to 25
33 | O=C1[C@@H](C2COC2)[C@@H](c2c(F)cc(-c3cnn(C(F)(F)F)c3)cc2F)N1c1ccc2[nH]cnc2c1 (single isomer, unassigned) [Compound 42A] | 25 to 1000
34 | Cc1cc(-c2ccc(C(F)(F)F)nn2)ccc1[C@@H]1[C@H](C2CC2)C(=O)N1c1ccc2[nH]cnc2c1 (single isomer, unassigned) [Compound 67A] | 25 to 1000
35 | Cc1cc(-n2cnc(C(F)(F)F)c2)ncc1[C@H]1[C@@H](C2CC2)C(=O)N1c1ccc2[nH]cnc2c1 (single isomer, unassigned) [Compound 73B] | < 2
36 | O=C1[C@H](C2CC2)[C@H](c2c(F)cc(-n3ncc(C(F)(F)F)n3)cc2F)N1c1ccc2[nH]cnc2c1 (single isomer, unassigned) [Compound 60B] | < 2
37 | O=C1[C@H](C2CC2)[C@H](c2ccc(-c3cnn(C(F)(F)F)c3)cc2Cl)N1c1ccc2[nH]cnc2c1 (single isomer, unassigned) [Compound 75B] | < 2
38 | Cc1cc(-c2cnn(C(F)(F)F)c2)ccc1[C@@H]1[C@H](C2CC2)C(=O)N1c1ccc2[nH]cnc2c1 (single isomer, unassigned) [Compound 56A] | 25 to 1000
39 | O=C1[C@@H](O)[C@H](c2c(F)cc(-c3cnn(C(F)(F)F)c3)cc2F)N1c1ccc2[nH]cnc2c1 (racemic) [Compound 16TR] | 25 to 1000
40 | Cc1nc(-c2cc(F)c([C@H]3[C@@H](C)C(=O)N3c3ccc4[nH]cnc4c3)c(F)c2)cs1 (racemic) [Compound 10CR, (cis and racemic)-1-(1H-benzo[d]imidazol-5-yl)-4-(2,6-difluoro-4-(2-methylthiazol-4-yl)phenyl)-3-methylazetidin-2-one] | 2 to 25
41 | Cc1nc(-c2cnn(C(F)(F)F)c2)ccc1[C@H]1[C@@H](C2CC2)C(=O)N1c1ccc2[nH]cnc2c1 (single isomer, unassigned) [Compound 68B] | < 2
42 | O=C1[C@@H](C2CC2)[C@@H](c2ccc(-c3cnn(C(F)(F)F)c3)cc2Cl)N1c1ccc2[nH]cnc2c1 (single isomer, unassigned) [Compound 75A] | 25 to 1000
43 | CC1C(=O)N(c2ccc3[nH]cnc3c2)C1c1c(F)cc(OCCC(F)F)cc1F (racemic) [Compound 7, 1-(1H-benzo[d]imidazol-5-yl)-4-(4-(3,3-difluoropropoxy)-2,6-difluorophenyl)-3-methylazetidin-2-one] | 2 to 25
